Experimental data taken from patent US20250019387A1 (Frontier Medicines Corporation, priority 0001, published 2025).

Each molecule was assayed against KRAS G12C and cRAF (Ras-binding domain) interaction (Homo sapiens (Human), UniProt P01116, C118S/C51S/C80L/G12C) (assay: Inhibition of KRAS G12C and cRAF binding (AlphaScreen)). Conditions: GMPPNP-loaded KRAS G12C, 19-20 hours incubation with compound; read-out: IC50 (Inhibition of KRAS G12C and cRAF Binding).
Method in brief: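 IC50 values come from 4-parameter nonlinear regression of AlphaScreen signal (680 nm excitation, 570 nm emission). Compound plates sat 19-20 h at room temperature before RBD and donor/acceptor beads were added in Hepes pH 7.4 buffer with 150 mM NaCl, 5 mM MgCl2, 2% DMSO for 60-90 min; biotin-AviTag-GST replaced RBD to flag assay-technology interferers.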

Chain of KRAS G12C and cRAF (Ras-binding domain) interaction (P01116 other isoform, or with tags, fused parts or gaps G12C/C51S/C80L/C118S): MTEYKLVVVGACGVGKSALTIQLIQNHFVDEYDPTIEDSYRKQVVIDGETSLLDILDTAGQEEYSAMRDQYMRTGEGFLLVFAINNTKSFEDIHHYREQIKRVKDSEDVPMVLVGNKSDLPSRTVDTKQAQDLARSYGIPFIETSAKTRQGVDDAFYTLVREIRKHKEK

Row | IC50 [nM] | SMILES
1 | 10 to 100 | CN(CC1CN(C(=O)/C=C/c2ccncn2)C1)c1nc(OC[C@@]23CCCN2C[C@H](F)C3)nc2c1CCN(c1cccc3cccc(Cl)c13)C2 [Example 70, (E)-1-(3-(((7-(8-chloronaphthalen-1-yl)-2-(((2R,7aS)-2-fluorohexahydro-1H-pyrrolizin-7a-yl)methoxy)-5,6,7,8-tetrahydropyrido[3,4-d]pyrimidin-4-yl)(methyl)amino)methyl)azetidin-1-yl)-3-(pyrimidin-4-yl)prop-2-en-1-one]
2 | > 500 | Cc1nccc(/C=C/C(=O)N2CC[C@@H](N(C)c3nc(OC[C@@]45CCCN4C[C@H](F)C5)nc4c3CCN(c3cccc5cccc(Cl)c35)C4)C2)n1 [Example 71, (E)-1-((R)-3-((7-(8-chloronaphthalen-1-yl)-2-(((2R,7aS)-2-fluorohexahydro-1H-pyrrolizin-7a-yl)methoxy)-5,6,7,8-tetrahydropyrido[3,4-d]pyrimidin-4-yl)(methyl)amino)pyrrolidin-1-yl)-3-(2-methylpyrimidin-4-yl)prop-2-en-1-one]
3 | 10 to 100 | Cc1nsc(/C=C/C(=O)N2CC[C@@H](N(C)c3nc(OC[C@@]45CCCN4C[C@H](F)C5)nc4c(F)c(-c5cccc6cccc(Cl)c56)ncc34)C2)n1 [Example 75, (E)-1-((R)-3-((7-(8-chloronaphthalen-1-yl)-8-fluoro-2-(((2R,7aS)-2-fluorotetrahydro-1H-pyrrolizin-7a(5H)-yl)methoxy)pyrido[4,3-d]pyrimidin-4-yl)(methyl)amino)pyrrolidin-1-yl)-3-(3-methyl-1,2,4-thiadiazol-5-yl)prop-2-en-1-one]
4 | < 10 | C[C@H](F)c1noc(/C=C/C(=O)N2CC(CN(C)c3nc(OC[C@@]45CCCN4C[C@H](F)C5)nc4c(F)c(-c5cccc6cccc(Cl)c56)ncc34)C2)n1 [Example 76, (E)-1-(3-(((7-(8-chloronaphthalen-1-yl)-8-fluoro-2-(((2R,7aS)-2-fluorotetrahydro-1H-pyrrolizin-7a(5H)-yl)methoxy)pyrido[4,3-d]pyrimidin-4-yl)(methyl)amino)methyl)azetidin-1-yl)-3-(3-((S)-1-fluoroethyl)-1,2,4-oxadiazol-5-yl)prop-2-en-1-one]
5 | 10 to 100 | CN(CC1CN(C(=O)/C=C/CN2CCOCC2)C1)c1nc(OC[C@@]23CCCN2C[C@H](F)C3)nc2c(F)c(-c3cccc4ccc(F)c(Cl)c34)ncc12 [Example 79, (E)-1-(3-(((7-(8-chloro-7-fluoronaphthalen-1-yl)-8-fluoro-2-(((2R,7aS)-2-fluorotetrahydro-1H-pyrrolizin-7a(5H)-yl)methoxy)pyrido[4,3-d]pyrimidin-4-yl)(methyl)amino)methyl)azetidin-1-yl)-4-morpholinobut-2-en-1-one]
6 | < 10 | C[C@@H](F)c1noc(/C=C/C(=O)N2CC[C@@H](N(C)c3nc(OC[C@@]45CCCN4C[C@H](F)C5)nc4c(F)c(-c5cccc6cccc(Cl)c56)ncc34)C2)n1 [Example 84, (E)-1-((R)-3-((7-(8-chloronaphthalen-1-yl)-8-fluoro-2-(((2R,7aS)-2-fluorotetrahydro-1H-pyrrolizin-7a(5H)-yl)methoxy)pyrido[4,3-d]pyrimidin-4-yl)(methyl)amino)pyrrolidin-1-yl)-3-(3-((R)-1-fluoroethyl)-1,2,4-oxadiazol-5-yl)prop-2-en-1-one]
7 | < 10 | CC(C)c1noc(/C=C/C(=O)N2CC[C@@H](N(C)c3nc(OCC45CCCN4CCC5)nc4c(F)c(-c5cccc6ccc(F)c(Cl)c56)ncc34)C2)n1 [Example 85, (R,E)-1-(3-((7-(8-chloro-7-fluoronaphthalen-1-yl)-8-fluoro-2-((hexahydro-1H-pyrrolizin-7a-yl)methoxy)pyrido[4,3-d]pyrimidin-4-yl)(methyl)amino)pyrrolidin-1-yl)-3-(3-isopropyl-1,2,4-oxadiazol-5-yl)prop-2-en-1-one]
8 | < 10 | Cc1noc(/C=C/C(=O)N2CC(CN(C)c3nc(OC[C@@]45CCCN4C[C@H](F)C5)nc4c(F)c(-c5cc(O)cc6ccccc56)ncc34)C2)n1 [Example 86, (E)-1-(3-(((8-fluoro-2-(((2R,7aS)-2-fluorotetrahydro-1H-pyrrolizin-7a(5H)-yl)methoxy)-7-(3-hydroxynaphthalen-1-yl)pyrido[4,3-d]pyrimidin-4-yl)(methyl)amino)methyl)azetidin-1-yl)-3-(3-methyl-1,2,4-oxadiazol-5-yl)prop-2-en-1-one]

The next lines start with the molecule.

Row | SMILES | IC50 [nM]
9 | Cc1nccc(/C=C/C(=O)N2CC(CN(C)c3nc(OC[C@@]45CCCN4C[C@H](F)C5)nc4c(F)c(-c5cccc6ccc(F)c(Cl)c56)ncc34)C2)n1 [Example 68, (E)-1-(3-(((7-(8-chloro-7-fluoronaphthalen-1-yl)-8-fluoro-2-(((2R,7aS)-2-fluorotetrahydro-1H-pyrrolizin-7a(5H)-yl)methoxy)pyrido[4,3-d]pyrimidin-4-yl)(methyl)amino)methyl)azetidin-1-yl)-3-(2-methylpyrimidin-4-yl)prop-2-en-1-one] | 10 to 100
10 | Cc1nccc(/C=C/C(=O)N2CC(CN(C)c3nc(OC[C@@]45CCCN4C[C@H](F)C5)nc4c3CCN(c3cccc5cccc(Cl)c35)C4)C2)n1 [Example 69, (E)-1-(3-(((7-(8-chloronaphthalen-1-yl)-2-(((2R,7aS)-2-fluorohexahydro-1H-pyrrolizin-7a-yl)methoxy)-5,6,7,8-tetrahydropyrido[3,4-d]pyrimidin-4-yl)(methyl)amino)methyl)azetidin-1-yl)-3-(2-methylpyrimidin-4-yl)prop-2-en-1-one] | 100 to 500
11 | Cc1nccc(/C=C/C(=O)N2CC[C@@H](N(C)c3nc(OC[C@@]45CCCN4C[C@H](F)C5)nc4c(F)c(-c5cccc6cccc(Cl)c56)ncc34)C2)n1 [Example 72, (E)-1-((R)-3-((7-(8-chloronaphthalen-1-yl)-8-fluoro-2-(((2R,7aS)-2-fluorotetrahydro-1H-pyrrolizin-7a(5H)-yl)methoxy)pyrido[4,3-d]pyrimidin-4-yl)(methyl)amino)pyrrolidin-1-yl)-3-(2-methylpyrimidin-4-yl)prop-2-en-1-one] | 100 to 500
12 | C=CC(=O)N1C[C@H](F)[C@@H](N(C)c2nc(OC[C@@]34CCCN3C[C@H](F)C4)nc3c(F)c(-c4cccc5cccc(Cl)c45)ncc23)C1 [Example 73, 1-((3S,4S)-3-((7-(8-chloronaphthalen-1-yl)-8-fluoro-2-(((2R,7aS)-2-fluorohexahydro-1H-pyrrolizin-7a-yl)methoxy)pyrido[4,3-d]pyrimidin-4-yl)(methyl)amino)-4-fluoropyrrolidin-1-yl)prop-2-en-1-one] | 10 to 100
13 | Cc1nsc(/C=C/C(=O)N2CC(CN(C)c3nc(OC[C@@]45CCCN4C[C@H](F)C5)nc4c(F)c(-c5cccc6cccc(Cl)c56)ncc34)C2)n1 [Example 74, (E)-1-(3-(((7-(8-chloronaphthalen-1-yl)-8-fluoro-2-(((2R,7aS)-2-fluorotetrahydro-1H-pyrrolizin-7a(5H)-yl)methoxy)pyrido[4,3-d]pyrimidin-4-yl)(methyl)amino)methyl)azetidin-1-yl)-3-(3-methyl-1,2,4-thiadiazol-5-yl)prop-2-en-1-one] | 100 to 500
14 | C[C@H](F)c1noc(/C=C/C(=O)N2CC[C@@H](N(C)c3nc(OC[C@@]45CCCN4C[C@H](F)C5)nc4c(F)c(-c5cccc6cccc(Cl)c56)ncc34)C2)n1 [Example 77, (E)-1-((R)-3-((7-(8-chloronaphthalen-1-yl)-8-fluoro-2-(((2R,7aS)-2-fluorohexahydro-1H-pyrrolizin-7a-yl)methoxy)pyrido[4,3-d]pyrimidin-4-yl)(methyl)amino)pyrrolidin-1-yl)-3-(3-((S)-1-fluoroethyl)-1,2,4-oxadiazol-5-yl)prop-2-en-1-one] | < 10
15 | CN(CC1CN(C(=O)/C=C/c2nc(C(C)(C)O)no2)C1)c1nc(OC[C@@]23CCCN2C[C@H](F)C3)nc2c(F)c(-c3cccc4ccc(F)c(Cl)c34)ncc12 [Example 78, (E)-1-(3-(((7-(8-chloro-7-fluoronaphthalen-1-yl)-8-fluoro-2-(((2R,7aS)-2-fluorotetrahydro-1H-pyrrolizin-7a(5H)-yl)methoxy)pyrido[4,3-d]pyrimidin-4-yl)(methyl)amino)methyl)azetidin-1-yl)-3-(3-(2-hydroxypropan-2-yl)-1,2,4-oxadiazol-5-yl)prop-2-en-1-one] | < 10
16 | C=CC(=O)N1CC[C@@H](N(C)c2nc(OC[C@]34CCCN3C[C@H](F)C4)nc3c(F)c(-c4cccc5ccc(F)c(Cl)c45)ncc23)C1 [Example 81, 1-((R)-3-((7-(8-chloro-7-fluoronaphthalen-1-yl)-8-fluoro-2-(((2R,7aR)-2-fluorotetrahydro-1H-pyrrolizin-7a(5H)-yl)methoxy)pyrido[4,3-d]pyrimidin-4-yl)(methyl)amino)pyrrolidin-1-yl)prop-2-en-1-one] | 10 to 100
17 | C=CC(=O)N1CC[C@@H](N(C)c2nc(OC[C@@]34CCCN3C[C@H](F)C4)nc3c(F)c(-c4cc(OC(F)F)cc5cccc(Cl)c45)ncc23)C1 [Example 82, 1-((R)-3-((7-(8-chloro-3-(difluoromethoxy)naphthalen-1-yl)-8-fluoro-2-(((2R,7aS)-2-fluorotetrahydro-1H-pyrrolizin-7a(5H)-yl)methoxy)pyrido[4,3-d]pyrimidin-4-yl)(methyl)amino)pyrrolidin-1-yl)prop-2-en-1-one] | > 500
18 | C[C@@H](F)c1noc(/C=C/C(=O)N2CC(CN(C)c3nc(OC[C@@]45CCCN4C[C@H](F)C5)nc4c(F)c(-c5cccc6cccc(Cl)c56)ncc34)C2)n1 [Example 83, (E)-1-(3-(((7-(8-chloronaphthalen-1-yl)-8-fluoro-2-(((2R,7aS)-2-fluorotetrahydro-1H-pyrrolizin-7a(5H)-yl)methoxy)pyrido[4,3-d]pyrimidin-4-yl)(methyl)amino)methyl)azetidin-1-yl)-3-(3-((R)-1-fluoroethyl)-1,2,4-oxadiazol-5-yl)prop-2-en-1-one] | < 10
